Patent US11725000B2, “Apoptosis inhibitors” (National Institute of Biological Sciences, Beijing, priority 2017, dated 2023)
pEC50: −log10 of the molar value.

The molecules below were run on U2OS_Bim cells (assay: Apoptosis inhibition assay (Bim-induced apoptosis, cell viability by ATP level)). Conditions: U2OS_Bim cells; estimated (*Est.) / preliminary results; numbering of Tables 4a/4b; read-out: EC50.
Format: cell-based
Outline: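 Apoptosis was triggered by doxycycline (0.1 μg/mL) induction of Bim, one hour after compound addition to U2OS_Bim cells. Survival was measured after 24 h from cellular ATP (CellTiter-Glo), relative to DMSO, with zVAD at 20 μM as rescue control. Data are duplicate means, some estimated from preliminary results.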

pEC50	Compound
6.00 to 9.00	COc1ccc(Cn2cc(-c3cc(C(F)F)nc(S(=O)(=O)CCCOCc4ccccc4)n3)ccc2=O)cc1OC [Compound 272, 5-(2-((3-(benzyloxy)propyl)sulfonyl)-6-(difluoromethyl)pyrimidin-4-yl)-1-(3,4-dimethoxybenzyl)pyridin-2 (1H)-one]

Same assay, conditions: U2OS_Bim cells; estimated based on preliminary results; numbering of Tables 4a/4b; read-out: EC50

pEC50	Compound
> 5.00	C[S+]([O-])c1nc(-c2ccc(=O)n(Cc3ccc4c(c3)NCCN4)c2)cc(C(F)(F)F)n1 (stereo not shown) [Compound 235]
> 5.00	CNc1ccc(Cn2cc(-c3cc(C(F)(F)F)nc(S(C)(=O)=O)n3)ccc2=O)cc1OC [Compound 236]
> 5.00	CNc1ccc(Cn2cc(-c3cc(C(F)(F)F)nc([S+](C)[O-])n3)ccc2=O)cc1OC (stereo not shown) [Compound 237]
> 5.00	CNc1cc(Cn2cc(-c3cc(C(F)(F)F)nc(S(C)(=O)=O)n3)ccc2=O)ccc1OC [Compound 238]
> 5.00	CNc1cc(Cn2cc(-c3cc(C(F)(F)F)nc([S+](C)[O-])n3)ccc2=O)ccc1OC (stereo not shown) [Compound 239]
> 5.00	CS(=O)(=O)c1nc(-c2ccc(=O)n(Cc3ccc4c(c3)OCCN4)c2)cc(C(F)(F)F)n1 [Compound 240]
> 5.00	C[S+]([O-])c1nc(-c2ccc(=O)n(Cc3ccc4c(c3)OCCN4)c2)cc(C(F)(F)F)n1 (stereo not shown) [Compound 241]
> 5.00	CS(=O)(=O)c1nc(-c2ccc(=O)n(Cc3ccc4c(c3)NCCO4)c2)cc(C(F)(F)F)n1 [Compound 242]
> 5.00	C[S+]([O-])c1nc(-c2ccc(=O)n(Cc3ccc4c(c3)NCCO4)c2)cc(C(F)(F)F)n1 (stereo not shown) [Compound 243]
> 5.00	CS(=O)(=O)c1nc(-c2ccc(=O)n(Cc3ccc4nccnc4c3)c2)cc(C(F)(F)F)n1 [Compound 244]
> 5.00	C[S+]([O-])c1nc(-c2ccc(=O)n(Cc3ccc4nccnc4c3)c2)cc(C(F)(F)F)n1 (stereo not shown) [Compound 245]
> 5.00	CS(=O)(=O)c1nc(-c2ccc(=O)n(Cc3ccc4ncccc4c3)c2)cc(C(F)(F)F)n1 [Compound 246]
> 5.00	C[S+]([O-])c1nc(-c2ccc(=O)n(Cc3ccc4ncccc4c3)c2)cc(C(F)(F)F)n1 (stereo not shown) [Compound 247]
> 5.00	CS(=O)(=O)c1nc(-c2ccc(=O)n(Cc3ccc4cnccc4c3)c2)cc(C(F)(F)F)n1 [Compound 248]
> 5.00	C[S+]([O-])c1nc(-c2ccc(=O)n(Cc3ccc4cnccc4c3)c2)cc(C(F)(F)F)n1 (stereo not shown) [Compound 249]
> 5.00	CS(=O)(=O)c1nc(-c2ccc(=O)n(Cc3ccc4ccncc4c3)c2)cc(C(F)(F)F)n1 [Compound 250]
> 5.00	C[S+]([O-])c1nc(-c2ccc(=O)n(Cc3ccc4ccncc4c3)c2)cc(C(F)(F)F)n1 (stereo not shown) [Compound 251]
> 5.00	CS(=O)(=O)c1nc(-c2ccc(=O)n(Cc3ccc4cccnc4c3)c2)cc(C(F)(F)F)n1 [Compound 252]
> 5.00	C[S+]([O-])c1nc(-c2ccc(=O)n(Cc3ccc4cccnc4c3)c2)cc(C(F)(F)F)n1 (stereo not shown) [Compound 253]
> 5.00	CS(=O)(=O)c1nc(-c2ccc(=O)n(CC3=Cc4ccccc4C3)c2)cc(C(F)(F)F)n1 [Compound 254]

pEC50	Compound
> 5.00	C[S+]([O-])c1nc(-c2ccc(=O)n(CC3=Cc4ccccc4C3)c2)cc(C(F)(F)F)n1 (stereo not shown) [Compound 255]
> 5.00	CS(=O)(=O)c1nc(-c2ccc(=O)n(Cn3ccc4ccccc43)c2)cc(C(F)(F)F)n1 [Compound 256]
> 5.00	C[S+]([O-])c1nc(-c2ccc(=O)n(Cn3ccc4ccccc43)c2)cc(C(F)(F)F)n1 (stereo not shown) [Compound 257]
> 5.00	COc1cn(Cn2cc(-c3cc(C(F)(F)F)nc(S(C)(=O)=O)n3)ccc2=O)cc1OC [Compound 258]
> 5.00	COc1cn(Cn2cc(-c3cc(C(F)(F)F)nc([S+](C)[O-])n3)ccc2=O)cc1OC (stereo not shown) [Compound 259]
> 5.00	COc1ccn(Cn2cc(-c3cc(C(F)(F)F)nc(S(C)(=O)=O)n3)ccc2=O)c1 [Compound 260]
> 5.00	COc1ccn(Cn2cc(-c3cc(C(F)(F)F)nc([S+](C)[O-])n3)ccc2=O)c1 (stereo not shown) [Compound 261]
> 5.00	CCc1cc(Cn2cc(-c3cc(C(F)(F)F)nc(S(C)(=O)=O)n3)ccc2=O)ccc1OC [Compound 262]
> 5.00	CCc1cc(Cn2cc(-c3cc(C(F)(F)F)nc([S+](C)[O-])n3)ccc2=O)ccc1OC (stereo not shown) [Compound 263]
> 5.00	CCc1ccc(Cn2cc(-c3cc(C(F)(F)F)nc(S(C)(=O)=O)n3)ccc2=O)cc1OC [Compound 264]
> 5.00	CCc1ccc(Cn2cc(-c3cc(C(F)(F)F)nc([S+](C)[O-])n3)ccc2=O)cc1OC (stereo not shown) [Compound 265]
> 5.00	CCc1ccc(Cn2cc(-c3cc(C(F)(F)F)nc(S(C)(=O)=O)n3)ccc2=O)cc1CC [Compound 266]
> 5.00	CCc1ccc(Cn2cc(-c3cc(C(F)(F)F)nc([S+](C)[O-])n3)ccc2=O)cc1CC (stereo not shown) [Compound 267]
> 5.00	CCOc1cccc(Cn2cc(-c3cc(C(F)(F)F)nc([S+](C)[O-])n3)ccc2=O)c1 (stereo not shown) [Compound 268]
> 5.00	CCC(=O)c1cc(-c2ccc(=O)n(Cc3ccc(OC)c(OC)c3)c2)nc(S(C)(=O)=O)n1 [Compound 269, 1-(3,4-dimethoxybenzyl)-5-(2-(methylsulfonyl)-6-propionylpyrimidin-4-yl)pyridin-2 (1H)-one]
> 5.00	CCC(F)(F)c1cc(-c2ccc(=O)n(Cc3ccc(OC)c(OC)c3)c2)nc(S(C)(=O)=O)n1 [Compound 270, 5-(6-(1,1-difluoropropyl)-2-(methylsulfonyl)pyrimidin-4-yl)-1-(3,4-dimethoxybenzyl)pyridin-2 (1H)-one]
> 5.00	COc1ccc(Cn2cc(-c3cc(C(=O)c4ccccc4)nc(S(C)(=O)=O)n3)ccc2=O)cc1OC [Compound 271, 5-(6-benzoyl-2-(methylsulfonyl)pyrimidin-4-yl)-1-(3,4-dimethoxybenzyl)pyridin-2 (1H)-one]
5.00 to 6.00	COc1ccc(Cn2cc(-c3cc(C(F)F)nc(S(=O)(=O)CCCO)n3)ccc2=O)cc1OC [Compound 273, 5-(6-(difluoromethyl)-2-((3-hydroxypropyl)sulfonyl)pyrimidin-4-yl)-1-(3,4-dimethoxybenzyl)pyridin-2 (1H)-one]
> 4.00	COc1ccc(OC2CCCN(c3cc(C(F)(F)F)nc(S(C)(=O)=O)n3)C2)cc1OC (stereo not shown) [Compound 274, 4-(3-(3,4-dimethoxyphenoxy)piperidin-1-yl)-2-(methylsulfonyl)-6-(trifluoromethyl)pyrimidine]

Same assay, conditions: U2OS_Bim cells; means of duplicates; numbering of Tables 4a/4b; read-out: EC50

pEC50	Compound
> 4.00	COc1ccc(Cn2cc(-c3cc(=O)n(C)c(S(C)(=O)=O)n3)ccc2=O)cc1OC [Compound 275, 6-(1-(3,4-dimethoxybenzyl)-6-oxo-1,6-dihydropyridin-3-yl)-3-methyl-2-(methylsulfonyl)pyrimidin-4 (3H)-one]
6.00 to 9.00	COc1ccc(Cn2cc(-c3cc(C(F)(F)F)nc(S(=O)(=O)CCCCO)n3)ccc2=O)cc1OC [Compound 276, 1-(3,4-dimethoxybenzyl)-5-(2-((4-hydroxybutyl)sulfonyl)-6-(trifluoromethyl)pyrimidin-4-yl)pyridin-2 (1H)-one]
6.00 to 9.00	COc1ccc(Cn2cc(-c3cc(C(F)F)nc([S+]([O-])CCC(OCc4ccccc4)c4ccccc4)n3)ccc2=O)cc1OC (stereo not shown) [Compound 277, 5-(2-((3-(benzyloxy)-3-phenylpropyl)sulfinyl)-6-(difluoromethyl)pyrimidin-4-yl)-1-(3,4-dimethoxybenzyl)pyridin-2 (1H)-one]
